System: MV-4-11 cells
Experiment: Gene expression microarray analysis (Affymetrix PrimeView) and GSEA
Type: cell-based, human
Design: RFU PODN (11730768_x_at) / Fold change /veh PODN (11730768_x_at) / RFU LINC00158 (11744669_a_at) / Fold change /veh LINC00158 (11744669_a_at) / RFU DUSP10 (11751237_a_at) / Fold change /veh DUSP10 (11751237_a_at) / RFU ID3 (11757404_x_at) / Fold change /veh ID3 (11757404_x_at) / RFU PLEKHG5 (11737974_s_at) / Fold change /veh PLEKHG5 (11737974_s_at) / RFU LRRC4B (11730491_at) / Fold change /veh LRRC4B (11730491_at) / RFU GIMAP4 (11747438_a_at) / Fold change /veh GIMAP4 (11747438_a_at) / RFU KRT8 (11758183_x_at) / Fold change /veh KRT8 (11758183_x_at) / RFU CNN1 (11734310_a_at) / Fold change /veh CNN1 (11734310_a_at) / RFU VPS37D (11726825_at) / Fold change /veh VPS37D (11726825_at) / RFU C10orf10 (11716522_x_at) / Fold change /veh C10orf10 (11716522_x_at) / RFU KIR2DL2 /// KIR2DL4 /// KIR2DL5A /// KIR2DL5B /// KIR2DS1 /// KIR2DS2 /// KIR2DS3 /// KIR2DS4 /// KIR3DL3 /// KIR3DL3 /// KIR3DS1 (11738374_at) / Fold change /veh KIR2DL2 /// KIR2DL4 /// KIR2DL5A /// KIR2DL5B /// KIR2DS1 /// KIR2DS2 /// KIR2DS3 /// KIR2DS4 /// KIR3DL3 /// KIR3DL3 /// KIR3DS1 (11738374_at) / RFU C1QL1 (11718748_at) / Fold change /veh C1QL1 (11718748_at) / RFU TMPRSS4 (11747572_a_at) / Fold change /veh TMPRSS4 (11747572_a_at) / RFU HAMP (11756126_x_at) / Fold change /veh HAMP (11756126_x_at) / RFU RNFT2 (11725882_a_at) / Fold change /veh RNFT2 (11725882_a_at) / RFU NR4A2 (11747474_a_at) / Fold change /veh NR4A2 (11747474_a_at) / RFU ABCC12 (11746883_a_at) / Fold change /veh ABCC12 (11746883_a_at) / RFU TMEM136 (11760407_x_at) / Fold change /veh TMEM136 (11760407_x_at) / RFU CLDN22 /// WWC2 (11732394_at) / Fold change /veh CLDN22 /// WWC2 (11732394_at) / RFU HLA-DPB1 (11760878_x_at) / Fold change /veh HLA-DPB1 (11760878_x_at) / RFU SPINT1 (11716480_a_at) / Fold change /veh SPINT1 (11716480_a_at) / RFU GAP43 (11754022_s_at) / Fold change /veh GAP43 (11754022_s_at) / RFU A4GNT (11735810_at) / Fold change /veh A4GNT (11735810_at) / RFU PRB3 (11715151_x_at) / Fold change /veh PRB3 (11715151_x_at) / RFU TUBB4B (11761932_at) / Fold change /veh TUBB4B (11761932_at) / RFU CAPN14 (11732068_a_at) / Fold change /veh CAPN14 (11732068_a_at) / RFU TMCC2 (11721928_a_at) / Fold change /veh TMCC2 (11721928_a_at) / RFU IRGQ (11745062_a_at) / Fold change /veh IRGQ (11745062_a_at) / RFU FAM174B (11720279_a_at) / Fold change /veh FAM174B (11720279_a_at) / RFU TMPRSS4 (11748680_a_at) / Fold change /veh TMPRSS4 (11748680_a_at) / RFU FAM212B (11763350_a_at) / Fold change /veh FAM212B (11763350_a_at) / RFU PLEKHG5 (11743358_a_at) / Fold change /veh PLEKHG5 (11743358_a_at) / RFU ZSCAN30 (11745921_a_at) / Fold change /veh ZSCAN30 (11745921_a_at) / RFU CMKLR1 (11741424_a_at) / Fold change /veh CMKLR1 (11741424_a_at) / RFU LOC101060620 /// MAPK8IP1 (11723275_at) / Fold change /veh LOC101060620 /// MAPK8IP1 (11723275_at) / RFU SPTSSB (11747773_x_at) / Fold change /veh SPTSSB (11747773_x_at) / RFU PRSS12 (11739890_at) / Fold change /veh PRSS12 (11739890_at) / RFU BIN1 (11741810_x_at) / Fold change /veh BIN1 (11741810_x_at) / RFU WNT11 (11732464_a_at) / Fold change /veh WNT11 (11732464_a_at) / RFU C10orf10 (11716521_a_at) / Fold change /veh C10orf10 (11716521_a_at) / RFU C5orf56 (11738089_at) / Fold change /veh C5orf56 (11738089_at) / RFU CYB561 (11721691_x_at) / Fold change /veh CYB561 (11721691_x_at) / RFU ANKRD19P (11752326_a_at) / Fold change /veh ANKRD19P (11752326_a_at) / RFU OR2T12 /// OR2T33 /// OR2T8 (11738714_s_at) / Fold change /veh OR2T12 /// OR2T33 /// OR2T8 (11738714_s_at) / RFU VCAN (11748164_a_at) / Fold change /veh VCAN (11748164_a_at) / RFU JSRP1 (11732532_at) / Fold change /veh JSRP1 (11732532_at) / RFU KRTAP10-11 (11738290_x_at) / Fold change /veh KRTAP10-11 (11738290_x_at) / RFU MYO3A (11730013_a_at) / Fold change /veh MYO3A (11730013_a_at) / RFU EBF3 (11725865_a_at) / Fold change /veh EBF3 (11725865_a_at) / RFU CAMK2N1 (11719241_x_at) / Fold change /veh CAMK2N1 (11719241_x_at) / RFU C5orf56 (11738088_a_at) / Fold change /veh C5orf56 (11738088_a_at) / RFU OLFML3 (11715873_a_at) / Fold change /veh OLFML3 (11715873_a_at) / RFU LOC100653217 /// NTM (11731650_a_at) / Fold change /veh LOC100653217 /// NTM (11731650_a_at) / RFU MAPK11 (11762145_a_at) / Fold change /veh MAPK11 (11762145_a_at) / RFU FIZ1 (11724087_x_at) / Fold change /veh FIZ1 (11724087_x_at) / RFU OASL (11726364_x_at) / Fold change /veh OASL (11726364_x_at) / RFU SOX15 (11748057_x_at) / Fold change /veh SOX15 (11748057_x_at) / RFU CD79A (11719716_a_at) / Fold change /veh CD79A (11719716_a_at) / RFU HIST1H1D (11736915_at) / Fold change /veh HIST1H1D (11736915_at) / RFU CASKIN2 (11723855_a_at) / Fold change /veh CASKIN2 (11723855_a_at) / RFU LOC730098 (11760151_x_at) / Fold change /veh LOC730098 (11760151_x_at) / RFU OR4N2 (11742367_at) / Fold change /veh OR4N2 (11742367_at) / RFU PRRT2 (11749266_a_at) / Fold change /veh PRRT2 (11749266_a_at) / RFU SNX32 (11753110_a_at) / Fold change /veh SNX32 (11753110_a_at) / RFU CDHR5 (11726645_a_at) / Fold change /veh CDHR5 (11726645_a_at) / RFU RCAN1 (11760418_a_at) / Fold change /veh RCAN1 (11760418_a_at) / RFU FAM167A (11723789_a_at) / Fold change /veh FAM167A (11723789_a_at) / RFU FAM26E (11764081_at) / Fold change /veh FAM26E (11764081_at) / RFU ISYNA1 (11749810_s_at) / Fold change /veh ISYNA1 (11749810_s_at) / RFU ACY1 (11761880_at) / Fold change /veh ACY1 (11761880_at) / RFU 11764098_at / Fold change /veh 11764098_at / RFU SAMD14 (11745864_x_at) / Fold change /veh SAMD14 (11745864_x_at) / RFU NPB (11741838_a_at) / Fold change /veh NPB (11741838_a_at) / RFU TMPRSS6 (11731388_a_at) / Fold change /veh TMPRSS6 (11731388_a_at) / RFU KRTAP10-2 (11738614_at) / Fold change /veh KRTAP10-2 (11738614_at) / RFU ARHGAP8 /// PRR5-ARHGAP8 (11727945_x_at) / Fold change /veh ARHGAP8 /// PRR5-ARHGAP8 (11727945_x_at) / RFU KRTAP5-7 /// NADSYN1 (11734609_at) / Fold change /veh KRTAP5-7 /// NADSYN1 (11734609_at) / RFU RASL12 (11751679_a_at) / Fold change /veh RASL12 (11751679_a_at) / RFU CDKN2B (11736163_a_at) / Fold change /veh CDKN2B (11736163_a_at) / RFU PRF1 (11729649_at) / Fold change /veh PRF1 (11729649_at) / RFU, ZNF638 /// ZNF638-IT1 / Fold change vs veh, ZNF638 /// ZNF638-IT1 / RFU, PANK3 / Fold change vs veh, PANK3 / RFU, SH3YL1 / Fold change vs veh, SH3YL1 / RFU, ZEB2 / Fold change vs veh, ZEB2 / RFU, NRIP1 / Fold change vs veh, NRIP1 / RFU, PTTG1IP / Fold change vs veh, PTTG1IP / RFU, CAPN2 / Fold change vs veh, CAPN2 / RFU, MED14 / Fold change vs veh, MED14 / RFU, SNORA58 / Fold change vs veh, SNORA58 / RFU, C1orf63 / Fold change vs veh, C1orf63 / RFU, LRRFIP1 / Fold change vs veh, LRRFIP1 / RFU, NDUFAF7 / Fold change vs veh, NDUFAF7 / RFU, SLC12A2 / Fold change vs veh, SLC12A2 / RFU, IBTK / Fold change vs veh, IBTK / RFU, ESF1 / Fold change vs veh, ESF1 / Fold change vs veh, TMEM50B / RFU, TAOK1 / Fold change vs veh, TAOK1 / RFU, ACBD3 / Fold change vs veh, ACBD3 / RFU, TMA16 / Fold change vs veh, TMA16 / RFU, RWDD3 / Fold change vs veh, RWDD3 / RFU, BCAT1 / Fold change vs veh, BCAT1 / RFU, EDEM3 / Fold change vs veh, EDEM3 / RFU, TMEM33 / Fold change vs veh, TMEM33 / RFU, WDR75 / Fold change vs veh, WDR75 / RFU, AHCTF1 / Fold change vs veh, AHCTF1 / RFU, TFRC / Fold change vs veh, TFRC / RFU, ZDHHC17 / Fold change vs veh, ZDHHC17 / RFU, NOM1 / Fold change vs veh, NOM1 / RFU, ARL8B / Fold change vs veh, ARL8B / RFU, ZBTB11 / Fold change vs veh, ZBTB11 / RFU, TAMM41 / Fold change vs veh, TAMM41 / RFU, KIAA1704 /// LOC100996395 / Fold change vs veh, KIAA1704 /// LOC100996395 / RFU, ING1 / Fold change vs veh, ING1 / RFU, TRMT61B / Fold change vs veh, TRMT61B / RFU, FUBP3 / Fold change vs veh, FUBP3 / RFU, TP53 / Fold change vs veh, TP53 / RFU, TNKS2 / Fold change vs veh, TNKS2 / RFU, ZFP14 / Fold change vs veh, ZFP14 / RFU, ACTR2 / Fold change vs veh, ACTR2 / RFU, PPP3R1 / Fold change vs veh, PPP3R1 / RFU, PIK3R1 / Fold change vs veh, PIK3R1 / RFU, HNRNPA1 / Fold change vs veh, HNRNPA1 / RFU, RNF170 / Fold change vs veh, RNF170 / RFU, ZNF28 / Fold change vs veh, ZNF28 / RFU, RNGTT / Fold change vs veh, RNGTT / RFU, OGT / Fold change vs veh, OGT / RFU, BRD1 / Fold change vs veh, BRD1 / RFU, MARS / Fold change vs veh, MARS / RFU, ZNF655 / Fold change vs veh, ZNF655 / RFU, FAHD1 / Fold change vs veh, FAHD1 / RFU, BDP1 / Fold change vs veh, BDP1 / RFU, LRRCC1 / Fold change vs veh, LRRCC1 / RFU, ARID1A / Fold change vs veh, ARID1A / RFU, ZNF146 / Fold change vs veh, ZNF146 / RFU, ZNF330 / Fold change vs veh, ZNF330 / RFU, GPN3 / Fold change vs veh, GPN3 / RFU, C9orf123 / Fold change vs veh, C9orf123 / RFU, N4BP2L2 / Fold change vs veh, N4BP2L2 / RFU, ARFIP1 / Fold change vs veh, ARFIP1 / RFU, FAM179B / Fold change vs veh, FAM179B / RFU, BCL10 / Fold change vs veh, BCL10 / RFU, UHRF1BP1L / Fold change vs veh, UHRF1BP1L / RFU, BET1 / Fold change vs veh, BET1 / RFU, CNOT2 / Fold change vs veh, CNOT2 / RFU, ZNF268 / Fold change vs veh, ZNF268 / Fold change vs veh, ZNF507 / RFU, DGCR2 / Fold change vs veh, DGCR2 / RFU, WDSUB1 / Fold change vs veh, WDSUB1 / Fold change vs veh, HSP90B1 /// MIR3652 / RFU, ADSS / Fold change vs veh, ADSS / RFU, GK / Fold change vs veh, GK / RFU, ZNF148 / Fold change vs veh, ZNF148 / RFU, TAF9 / Fold change vs veh, TAF9 / RFU, SLC1A5 / Fold change vs veh, SLC1A5 / RFU, SLMO2 / Fold change vs veh, SLMO2 / RFU, ABCC4 / Fold change vs veh, ABCC4 / RFU, LOC101060439 /// RAP1B / Fold change vs veh, LOC101060439 /// RAP1B / RFU, RFX7 / Fold change vs veh, RFX7 / RFU, GTPBP10 / Fold change vs veh, GTPBP10 / RFU, CNEP1R1 / Fold change vs veh, CNEP1R1 / RFU, BIVM-ERCC5 /// ERCC5 / Fold change vs veh, BIVM-ERCC5 /// ERCC5 / RFU, ILF3 / Fold change vs veh, ILF3 / RFU 11762660_at / Fold change /veh 11762660_at / RFU VCAN (11757783_s_at) / Fold change /veh VCAN (11757783_s_at) / RFU DDX43 (11728927_at) / Fold change /veh DDX43 (11728927_at) / RFU KRT8 (11758188_x_at) / Fold change /veh KRT8 (11758188_x_at) / RFU NKD1 (11759106_at) / Fold change /veh NKD1 (11759106_at) / RFU SRD5A1 (11742802_a_at) / Fold change /veh SRD5A1 (11742802_a_at) / RFU TPSAB1 /// TPSB2 (11721975_s_at) / Fold change /veh TPSAB1 /// TPSB2 (11721975_s_at) / RFU GSTM3 (11746129_a_at) / Fold change /veh GSTM3 (11746129_a_at) / RFU IL23R (11737362_x_at) / Fold change /veh IL23R (11737362_x_at) / RFU TMEM51 (11727254_a_at) / Fold change /veh TMEM51 (11727254_a_at) / RFU PIWIL2 (11732686_x_at) / Fold change /veh PIWIL2 (11732686_x_at) / RFU ORM1 (11744905_x_at) / Fold change /veh ORM1 (11744905_x_at) / RFU CCDC152 (11743942_at) / Fold change /veh CCDC152 (11743942_at) / RFU ECM1 (11717891_a_at) / Fold change /veh ECM1 (11717891_a_at) / RFU IL23R (11748794_a_at) / Fold change /veh IL23R (11748794_a_at) / RFU TNFAIP8L3 (11732012_x_at) / Fold change /veh TNFAIP8L3 (11732012_x_at) / RFU MBOAT4 (11741988_at) / Fold change /veh MBOAT4 (11741988_at) / RFU 11764193_at / Fold change /veh 11764193_at / RFU TMEM53 (11763286_at) / Fold change /veh TMEM53 (11763286_at) / RFU MAGEB2 (11727129_at) / Fold change /veh MAGEB2 (11727129_at) / RFU TMEM200A (11744735_a_at) / Fold change /veh TMEM200A (11744735_a_at) / RFU CCDC152 (11751479_a_at) / Fold change /veh CCDC152 (11751479_a_at) / RFU FAM211A (11726209_a_at) / Fold change /veh FAM211A (11726209_a_at) / RFU RGS16 (11746705_a_at) / Fold change /veh RGS16 (11746705_a_at) / RFU VCAN (11755009_s_at) / Fold change /veh VCAN (11755009_s_at) / RFU RHOB (11743442_s_at) / Fold change /veh RHOB (11743442_s_at) / RFU RGS16 (11720943_a_at) / Fold change /veh RGS16 (11720943_a_at) / RFU RGS16 (11720944_at) / Fold change /veh RGS16 (11720944_at) / RFU, VPS4B / Fold change vs veh, VPS4B / RFU, CREB1 / Fold change vs veh, CREB1 / RFU, DNAJC13 / Fold change vs veh, DNAJC13 / RFU, GNAQ / Fold change vs veh, GNAQ / RFU, CDK5R1 / Fold change vs veh, CDK5R1 / RFU, ZRANB3 / Fold change vs veh, ZRANB3 / RFU, CUL4A / Fold change vs veh, CUL4A / RFU, CCNY / Fold change vs veh, CCNY / RFU, UFL1 / Fold change vs veh, UFL1 / RFU, COG3 / Fold change vs veh, COG3 / RFU, DIAPH2 / Fold change vs veh, DIAPH2 / RFU, SKA2 / Fold change vs veh, SKA2 / RFU, AFF3 / Fold change vs veh, AFF3 / RFU, LMF1 / Fold change vs veh, LMF1 / RFU, IPO11 / Fold change vs veh, IPO11 / RFU, DFFB / Fold change vs veh, DFFB / RFU, FOXP1 / Fold change vs veh, FOXP1 / RFU, CARD8 / Fold change vs veh, CARD8 / RFU, STRN3 / Fold change vs veh, STRN3 / RFU, ADK / Fold change vs veh, ADK / RFU, RASSF2 / Fold change vs veh, RASSF2 / RFU, WIPF1 / Fold change vs veh, WIPF1 / RFU, LARP1B / Fold change vs veh, LARP1B / RFU, RASA1 / Fold change vs veh, RASA1 / RFU, RB1 / Fold change vs veh, RB1 / RFU, PPFIA1 / Fold change vs veh, PPFIA1 / RFU, MAT2A / Fold change vs veh, MAT2A / RFU, CCT5 / Fold change vs veh, CCT5 / RFU, WDR92 / Fold change vs veh, WDR92 / RFU, CUX1 / Fold change vs veh, CUX1 / RFU, TTC7A / Fold change vs veh, TTC7A / RFU, TMEM135 / Fold change vs veh, TMEM135 / RFU, DEPTOR / Fold change vs veh, DEPTOR / RFU, CPM / Fold change vs veh, CPM / RFU, DNAJB6 / Fold change vs veh, DNAJB6 / RFU, CACNA2D3 / Fold change vs veh, CACNA2D3 / RFU, DTX4 / Fold change vs veh, DTX4 / RFU, TFCP2 / Fold change vs veh, TFCP2 / RFU, GMCL1 /// GMCL1P1 / Fold change vs veh, GMCL1 /// GMCL1P1 / RFU, AEBP2 / Fold change vs veh, AEBP2 / RFU, SNHG1 /// SNORD22 /// SNORD25 /// SNORD26 /// SNORD27 /// SNORD28 /// SNORD29 /// SNORD31 / Fold change vs veh, SNHG1 /// SNORD22 /// SNORD25 /// SNORD26 /// SNORD27 /// SNORD28 /// SNORD29 /// SNORD31 / Fold change (Aza/veh), C12orf56 (ProbeSet 11735607_a_at) / Fold change (ACY-1035/veh), C12orf56 (ProbeSet 11735607_a_at) / Fold change (Aza/veh), FGFR1OP (ProbeSet 11751329_s_at) / Fold change (ACY-1035/veh), FGFR1OP (ProbeSet 11751329_s_at) / Fold change (Aza/veh), VPS36 (ProbeSet 11739960_a_at) / Fold change (ACY-1035/veh), VPS36 (ProbeSet 11739960_a_at) / RFU SYPL1 (11715823_x_at) / Fold change /veh SYPL1 (11715823_x_at) / RFU IGFBP7 (11715501_s_at) / Fold change /veh IGFBP7 (11715501_s_at) / RFU REEP3 (11722064_at) / Fold change /veh REEP3 (11722064_at) / RFU IGLL1 (11728026_x_at) / Fold change /veh IGLL1 (11728026_x_at): dose or concentration left out as unconfirmed
Settings: MV-4-11 cells, 48 hours

Nc1ncn([C@@H]2O[C@H](CO)[C@@H](O)[C@H]2O)c(=O)n1 [azacitidine]
RFU FAM211A (11726209_a_at): 7.10 RFU
